Counter-ions that a name gives are not always drawn.
Biological target: T1, GABA uptake carrier (Rattus norvegicus, UniProt P31647)
T1 construct: A crude membrane preparation was prepared from selected brain areas; from tissue; host or cells: crude membrane (synaptosomal) preparation from selected brain areas
T1 sequence (P31647 1-627): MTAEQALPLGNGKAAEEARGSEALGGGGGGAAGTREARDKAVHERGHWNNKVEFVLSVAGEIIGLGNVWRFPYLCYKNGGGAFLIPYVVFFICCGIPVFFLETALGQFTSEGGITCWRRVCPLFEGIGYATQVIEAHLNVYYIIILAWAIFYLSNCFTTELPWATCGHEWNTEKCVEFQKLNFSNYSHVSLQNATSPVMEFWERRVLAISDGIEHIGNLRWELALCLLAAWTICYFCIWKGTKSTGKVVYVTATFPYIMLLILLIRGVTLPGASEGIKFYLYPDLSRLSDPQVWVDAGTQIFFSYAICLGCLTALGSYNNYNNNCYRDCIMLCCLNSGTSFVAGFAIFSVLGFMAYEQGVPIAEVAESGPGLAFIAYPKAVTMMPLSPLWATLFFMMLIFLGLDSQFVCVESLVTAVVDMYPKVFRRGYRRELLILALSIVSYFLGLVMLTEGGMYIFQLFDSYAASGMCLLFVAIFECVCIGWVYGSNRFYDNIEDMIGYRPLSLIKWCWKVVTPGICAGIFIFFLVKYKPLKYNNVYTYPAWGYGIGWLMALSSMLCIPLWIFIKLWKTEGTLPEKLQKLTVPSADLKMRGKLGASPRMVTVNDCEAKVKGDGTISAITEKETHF
Assay: 3H-GABA uptake in crude brain membrane preparation in presence of NNC 05-0711
Format: biochemical
Conditions: NNC 05-0711 1 mM, 0.9 nM 3H-GABA + 25 nM GABA, pH 7.5, 30° C., 8 min, read-out: IC50 (nM) in vitro, Non-GABA uptake carrier mediated uptake of 3H-GABA
Procedure: ^3 H-GABA uptake was measured by a modification of the method of Fjalland et al., (1978). A crude membrane preparation was prepared from selected brain areas by homogenization in 20 ml of ice-cold 0.32 M sucrose with a hand driven teflon/glass Potter-Elvehjem homogenizer. The homogenate was centrifuged at 4° C. for 10 min. at 1.000×g, and the pellet was discarded. The supernatant was recentrifuged at 4° C. for 20 min. at 20.000×g. The pellet was then homogenized in 50 volumes 0.32 M sucrose. To 300 μl uptake-buffer ([…], 15.3 mM KCl, 6.67 mM MgSO4, 3.83 mM CaCl2, 16.67 mM glucose, 66.67 mM Tris, pH 7.5 at 30° C.) was added 1-(2-(((diphenylmethylene)amino)oxy)ethyl)-1,2,5,6-tetrahydro-3-pyridinecarboxylic acid (NNC 05-0711) (1 mM final concentration), 100 μl test substance and 50 μl tissue suspension. The samples were mixed and incubated at 30° C. for 8 min. Then ^3 H-GABA (0.9 nM final concentration) and unlabelled GABA (25 nM final concentration) was added, and the incubation was continued for an additional 8 min. The reaction was terminated by rapid filtration through Whatman GF/F glass fiber filters under vacuum. The filters were then washed twice in 10 ml of ice-cold isotonic saline, and the tritium trapped on the filters was quantified by conventional scintillation spectroscopy. Non-GABA uptake carrier mediated uptake of ^3 H-GABA was determined in the presence of […].

Row | SMILES | IC50 [nM]
1 | C[C@@H](CN1CCC(O)(c2ccccc2)CC1)Cn1c2ccccc2c2ccccc21 [Compound 11, (S)-1-((3-(9H-Carbazol-9-yl)-2-methyl)-1-propyl)-4-ph-enylpiperidin-4-ol hydrochloride] | 1480
2 | C[C@H](CN1CCC(O)(c2ccccc2)CC1)Cn1c2ccccc2c2ccccc21 [Compound 13, (R)-1-((3-(9H-Carbazol-9-yl)-2-methyl)-1-propyl)-4-phenylpiperidin-4-ol hydrochloride] | 7860
3 | CCc1ccc2c(c1)c1ccccc1n2CCCN1CCC(O)(c2ccccc2)CC1 [Compound 16, 1-(3-(3-Ethyl-9H-carbazol-9-yl)-1-propyl)-4-phenylpiperidin-4-ol] | 1700
4 | CC(Cl)CC(=O)n1c2ccccc2c2ccccc21 (stereo not drawn) [Compound 23, 1-(9H-Carbazol-9-yl)-3-chlorobutan-1-one] | 3100

Tested on: GABA uptake
Assay: not given
Conditions: oral; Yunger, L. M. et al. 1984; cited from earlier work

Row | SMILES | orally active inhibition of GABA uptake
5 | O=C(O)C1CCCN(CCC=C(c2ccccc2)c2ccccc2)C1 (stereo not drawn) [SK&F 89976A, N-(4,4-diphenyl-3-buten-1-yl)nipecotic acid] | orally active inhibitors of GABA uptake
6 | O=C(O)C1=CCCN(CCC=C(c2ccccc2)c2ccccc2)C1 [SK&F 100330A, N-(4,4-diphenyl-3-buten-1-yl)guvacine] | orally active inhibitors of GABA uptake
7 | O=C(O)CC1CCN(CCC=C(c2ccccc2)c2ccccc2)C1 (stereo not drawn) [SK&F 100561, N-(4,4-diphenyl-3-buten-1-yl)-homo-β-proline] | orally active inhibitors of GABA uptake
8 | O=C(O)C1CCCN(CCC=C(c2ccccc2)c2cccs2)C1 (stereo not drawn) [SK&F 100604J, N-(4-phenyl-4-(2-thienyl)-3-buten-1-yl)nipecotic acid] | orally active inhibitors of GABA uptake

Tested on: GABA uptake
Assay: not given
Conditions: cited from earlier work

Row | SMILES | inhibition of GABA uptake from the synaptic cleft into presynaptic nerve terminals and glial cells
9 | O=C(O)C1CCCNC1 (stereo not drawn) [nipecotic acid, 3-piperidinecarboxylic acid] | well-known and potent inhibitor

From US6071932A, “Carbazolypiperines as GABA uptake inhibitors” (British Technology Group Intercorporate Licensing Limited, priority 1995, dated 2000)
